Assay results as given in patent publication US11324732B2, “Methods for the treatment of dyskinesia in cerebral palsy” (AUSPEX PHARMACEUTICALS, INC., priority 2018, dated 2022).

Key:
patients with CP = details: cited from earlier work
[1] = relative to tetrabenazine; U.S. Pat. No. 8,524,733; cited from earlier work
[2] = test system: children and adolescents with dyskinesia in cerebral palsy
[3] = test system: adult patients diagnosed with DCP, choreiform predominant; assay: Example 3: Phase 3 efficacy study in adults; type: in vivo, human
Experimental: (§1) A Phase 3 study to evaluate the efficacy and safety of deutetrabenazine is performed on a population consisting of male and female patients, diagnosed with DCP. Patients may be included in the study only if they meet all of the following criteria: • 1. Patient is older than 18 years of age at baseline. • 2. Patient has had cerebral palsy (CP) symptoms since infancy (≤2 years). • 3. Patient has a diagnosis of DCP according to the Surveillance of Cerebral Palsy in Europe criteria. • 4. Patient has a total score of ≥10 on the MD-CRS part II items at the baseline visit, based on investigator scoring of chorea. • 5. Patient's symptoms are causing functional problems determined by a Clinical Global
Impression of Severity (CGI-S) score of 4 or greater based on investigator scoring. • 6. Choreiform is the predominant movement disorder as assessed by the EAB at screening.
(§2) Patients will receive 6 mg to 48 mg of deutetrabenazine. The titration scheme and maximum dose follows the one in the parent study, Example 1, supra.

[4] = test system: pediatric patients diagnosed with DCP, predominant motor symptoms dystonic; assay: Example 4: Phase 3 efficacy study, predominantly dystonic DCP; type: in vivo, human
Experimental: as §1, with “6 through” for “older than”, “age (inclusive)” for “age”
Impression of Severity (CGI-S) score of 4 or greater based on investigator scoring. • 6. Patient's predominant motor symptoms are dystonic.
as §2

[5] = test system: patients (age 6 through 18 years) with DCP with predominant choreiform movement disorder
[6] = versus placebo, from baseline to week 15

For `Nc1ccncc1` [Dalfampridine], the functional improvement (patients with CP) is listed as “failed to demonstrate functional improvement”.

In the case of `[2H]C([2H])([2H])Oc1cc2c(cc1OC([2H])([2H])[2H])[C@H]1CC(=O)[C@H](CC(C)C)CN1CC2` (racemic) [deutetrabenazine, (RR,SS)-1,3,4,6,7,11b-hexahydro-9,10-di(methoxy-d3)-3-(2-methylpropyl)-2H-benzo[a]quinolizin-2-one], the “half-life of its active metabolites” value [1] is given as “increased half-life”, the safety profile ([2]; in vivo) is given as “favorable safety profile” and the “abnormal involuntary movements associated with dyskinesia in cerebral palsy” value ([2]; long term administration of tolerable amounts) is given as “reduce abnormal involuntary movements”. The safety profile [3] was “favorable safety profile”, the “abnormal involuntary movements associated with dyskinesia in cerebral palsy” value ([3]; 6 mg to 48 mg) was “reduce abnormal involuntary movements” and the safety profile [4] was “favorable safety profile”. For the same molecule, the “dystonic abnormal involuntary movements associated with dyskinesia in cerebral palsy” value ([4]; 6 mg to 48 mg) was “reduce dystonic abnormal involuntary movements”, the “overall safety and efficacy of treatment” value ([5]; 6-48 mg/day oral, versus placebo) was “safe and effective” and the PGI-I response ([5]; Much Improved or Somewhat Improved in the PGI-I score) was “demonstrate a PGI-I response”. For the same molecule, the CGI-I response ([5]; Much Improved or Very Much Improved in the CGI-I score) was “demonstrate a CGI-I response”, the CaGI-I response ([5]; Much Improved or Very Much Improved in the CaGI-I score) was “demonstrate a CaGI-I response” and the PEDI-CAT ([5]; activities of daily living, parent/caregiver completed) was “improvement”. The UHDRS-TMC ([5]; in vivo) was “significant reductions”, the UHDRS-TMD ([5]; in vivo) was “significant reductions” and the UHDRS-TMS ([5]; in vivo) was “significant reductions”. The “safety by C-SSRS, ESRS, CBCL, ESS and lack of serious adverse events” value ([5]; in vivo) was “safe”, the “CP module of the PedsQL” value ([5]; quality of life, patient/caregiver) was “significant reductions” and the CGI-S response ([5]; reduction of >1 point in the CGI-S score) was “demonstrate a CGI-S response”. The “reduction in the CGI-I score” value [5, 6] was 0.5-0.7 points, the “reduction in the CaGI-I score” value [5, 6] was 0.5-0.7 points and the “reduction in the MD-CRS part I total score” value [5, 6] was 2-4 points. For the same molecule, the “reduction in the MD-CRS part II total score” value [5, 6] was 0.5-4 points and the “all primary and secondary endpoints” value ([5]; versus placebo, week 15) was “significant improvements”.
